From PubChem BioAssay (NCI)
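Dose response: 5 concentrations. Exposure: 48 h. Format: 96-well plates. Endpoint: linear interpolation; highest concentration if not reached. GI50 marks 50% less growth. TGI is the concentration that stops growth completely.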

Assays:
Experiment in all cases: NCI tumour cell line growth inhibition, 48 h
NCI-H226 lung = system: NCI-H226 lung
NCI-H23 lung = system: NCI-H23 lung
NCI-H460 lung = system: NCI-H460 lung
NCI-H522 lung = system: NCI-H522 lung
NCI/ADR-RES ovarian = system: NCI/ADR-RES ovarian
OVCAR-3 ovarian = system: OVCAR-3 ovarian
OVCAR-4 ovarian = system: OVCAR-4 ovarian
OVCAR-5 ovarian = system: OVCAR-5 ovarian
OVCAR-8 ovarian = system: OVCAR-8 ovarian
PC-3 prostate = system: PC-3 prostate
RPMI-8226 leukemia = system: RPMI-8226 leukemia
SF-268 CNS = system: SF-268 CNS
SF-295 CNS = system: SF-295 CNS
SF-539 CNS = system: SF-539 CNS
SK-MEL-2 melanoma = system: SK-MEL-2 melanoma
SK-MEL-28 melanoma = system: SK-MEL-28 melanoma
SK-MEL-5 melanoma = system: SK-MEL-5 melanoma
SK-OV-3 ovarian = system: SK-OV-3 ovarian
SN12C renal = system: SN12C renal
SNB-19 CNS = system: SNB-19 CNS
SNB-75 CNS = system: SNB-75 CNS
SR leukemia = system: SR leukemia
SW-620 colon = system: SW-620 colon
T-47D breast = system: T-47D breast
TK-10 renal = system: TK-10 renal
U251 CNS = system: U251 CNS
UACC-257 melanoma = system: UACC-257 melanoma
UACC-62 melanoma = system: UACC-62 melanoma
UO-31 renal = system: UO-31 renal

COc1ccc(CC(C)=C(c2ccc(OCCN3CCCC3)cc2)c2ccc(OCCN3CCCC3)cc2)cc1 gave a TGI (NCI-H226 lung) of 6.63 µM, a GI50 (NCI-H23 lung) of 3.49 µM and a TGI (NCI-H23 lung) of 6.76 µM. It also gave a GI50 (NCI-H460 lung) of 3.15 µM, a TGI (NCI-H460 lung) of 6.45 µM and a GI50 (NCI-H522 lung) of 3.63 µM. For the same molecule, the TGI (NCI-H522 lung) was 7.6 µM, the GI50 (NCI/ADR-RES ovarian) was 3.7 µM and the TGI (NCI/ADR-RES ovarian) was 7.08 µM. For the same molecule, the GI50 (OVCAR-3 ovarian) was 2.68 µM, the TGI (OVCAR-3 ovarian) was 5.59 µM and the GI50 (OVCAR-4 ovarian) was 3.39 µM. The TGI (OVCAR-4 ovarian) was 6.9 µM, the GI50 (OVCAR-5 ovarian) was 3.49 µM and the TGI (OVCAR-5 ovarian) was 6.68 µM. The GI50 (OVCAR-8 ovarian) was 3.64 µM, the TGI (OVCAR-8 ovarian) was 7.29 µM and the GI50 (PC-3 prostate) was 2.99 µM. The TGI (PC-3 prostate) was 7.25 µM, the GI50 (RPMI-8226 leukemia) was 2.12 µM and the TGI (RPMI-8226 leukemia) was 9.37 µM. The GI50 (SF-268 CNS) was 3.24 µM, the TGI (SF-268 CNS) was 6.7 µM and the GI50 (SF-295 CNS) was 4 µM. For the same molecule, the TGI (SF-295 CNS) was 7.38 µM, the GI50 (SF-539 CNS) was 3.59 µM and the TGI (SF-539 CNS) was 6.84 µM. It also gave a GI50 (SK-MEL-2 melanoma) of 3.68 µM, a TGI (SK-MEL-2 melanoma) of 6.97 µM and a GI50 (SK-MEL-28 melanoma) of 3.6 µM. For the same molecule, the TGI (SK-MEL-28 melanoma) was 6.83 µM, the GI50 (SK-MEL-5 melanoma) was 3.81 µM and the TGI (SK-MEL-5 melanoma) was 7.05 µM. The GI50 (SK-OV-3 ovarian) was 4.19 µM, the TGI (SK-OV-3 ovarian) was 7.93 µM and the GI50 (SN12C renal) was 3.49 µM. For the same molecule, the TGI (SN12C renal) was 6.74 µM, the GI50 (SNB-19 CNS) was 3.93 µM and the TGI (SNB-19 CNS) was 7.32 µM. For the same molecule, the GI50 (SNB-75 CNS) was 2.69 µM, the TGI (SNB-75 CNS) was 5.74 µM and the GI50 (SR leukemia) was 0.483 µM. The TGI (SR leukemia) was 1.3 µM, the GI50 (SW-620 colon) was 2.23 µM and the TGI (SW-620 colon) was 5.25 µM. The GI50 (T-47D breast) was 3.13 µM, the TGI (T-47D breast) was 7.61 µM and the GI50 (TK-10 renal) was 3.66 µM. For the same molecule, the TGI (TK-10 renal) was 7.28 µM, the GI50 (U251 CNS) was 1.81 µM and the TGI (U251 CNS) was 5.47 µM. The GI50 (UACC-257 melanoma) was 3.95 µM, the TGI (UACC-257 melanoma) was 7.59 µM and the GI50 (UACC-62 melanoma) was 4.02 µM. The TGI (UACC-62 melanoma) was 7.4 µM, the GI50 (UO-31 renal) was 2.79 µM and the TGI (UO-31 renal) was 5.75 µM.
